# Measured values taken from patent US10633419B2, “Immunomodulators” (BRISTOL-MYERS SQUIBB COMPANY, priority 2014, dated 2020).
# pIC50: −log10 of the molar value. Starred links: 1 amine or outer side, 2 acyl side, 3 side chain; linkers in the order of their positions; H or OH if unused. Positions of bridges follow the written chain, without caps; N, C: chain ends. Non-standard residues stand in square brackets, D forms with d. Residues, ends and D or L forms follow the SMILES beside them. Groups on a side chain read outwards from the residue. *: point of attachment. X6 = O=C(O)CCCCCCCCCCCCCCCCC(=O)N[C@@H](CCC(=O)NCCCOCCOCCOCCCN*)C(=O)O; X4 = O=C(O)CCCCCCCCCCCCCCCCC(=O)N[C@@H](CC(=O)NCCCOCCOCCOCCCN*)C(=O)O; X25 = CCCCCCCC[C@@H](NC(=O)CCC(=O)NCCCOCCOCCOCCCN*)C(=O)O; Trp(1-CH2COOH) = N[C@@H](Cc1cn(CC(=O)O)c2ccccc12)C(=O)O; X27 = CCCCCCCCCCCCCCCCNC(=O)CCC(=O)NCCCOCCOCCOCCCN*; X10 = O=C(O)CCCCCCCCCCCCCCC(=O)N[C@@H](CN*)C(=O)O; C18 diacid = O=C(O)CCCCCCCCCCCCCCCCC(=O)*; γGlu = O=C(O)[C@H](CCC(=O)[*:2])N[*:1]; d(cisHyp) = O=C(O)[C@H]1C[C@@H](O)CN1; NH(CH2)12COOH = O=C(O)CCCCCCCCCCCCN*; Bta = N[C@@H](Cc1csc2ccccc12)C(=O)O; PEG6 = NCCOCCOCCOCCOCCOCCOCCC(=O)O; Aha = [N-]=[N+]=NCC[C@H](N)C(=O)O; Hyp = O=C(O)[C@@H]1C[C@@H](O)CN1; Myristoyl = CCCCCCCCCCCCCC(=O)*; dHyp = O=C(O)[C@H]1C[C@H](O)CN1; NMeNle = CCCC[C@H](NC)C(=O)O; Pip = O=C(O)[C@@H]1CCCCN1; NMeA = CN[C@@H](C)C(=O)O; Aun = NCCCCCCCCCCC(=O)O; Dab = NCC[C@H](N)C(=O)O; Dap = NC[C@H](N)C(=O)O; Ava = NCCCCC(=O)O
# Target: T1, PD-L1 (Homo sapiens, UniProt Q9NZQ7)
# T1 construct: hPDL1(19-239)-TVMV-His; made in house; host or cells: HEK293T
# T1 sequence (Q9NZQ7 with tags, fused parts or gaps): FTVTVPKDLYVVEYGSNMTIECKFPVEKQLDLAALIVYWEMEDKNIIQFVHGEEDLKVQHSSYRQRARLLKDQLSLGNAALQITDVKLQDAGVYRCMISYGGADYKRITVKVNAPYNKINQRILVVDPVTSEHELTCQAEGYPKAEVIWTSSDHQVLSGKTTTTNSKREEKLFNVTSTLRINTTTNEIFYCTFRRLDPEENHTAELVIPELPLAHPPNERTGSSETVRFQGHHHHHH
# Experiment: PD-1/PD-L1 Homogenous Time-Resolved Fluorescence (HTRF) binding assay (PD-1-Ig/PD-L1-His)
# Settings: inhibition of PD-1-Ig binding to PD-L1-TVMV-His; value given as range class; read-out: HTRF IC50
# In short: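 Inhibitors pre-incubated 15 min with PD-L1-His (10 nM final), then PD-1-Ig (20 nM final) added for 15 min in dPBS/0.1% BSA/0.05% Tween-20. Eu-cryptate anti-Ig (1 nM) and APC anti-His (20 nM) added, 30 min equilibration, 665/620 nm HTRF ratio read.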
row,SMILES,pIC50
1,CCCC[C@H]1C(=O)N(C)[C@@H](CCCC)C(=O)N[C@@H](CC(C)C)C(=O)N[C@H](C(=O)NCC(=O)N[C@@H](CNC(=O)CC[C@H](NC(=O)CCCCCCCCCCCCCCCCC(=O)O)C(=O)O)C(=O)O)CSCC(=O)N[C@@H](Cc2ccc(OC)cc2)C(=O)N2CCCC[C@H]2C(=O)N[C@@H](CC(N)=O)C(=O)N2CCC[C@H]2C(=O)N[C@@H](Cc2c[nH]cn2)C(=O)N[C@@H](CCC(N)=O)C(=O)N2C[C@H](O)C[C@H]2C(=O)N[C@@H](Cc2c[nH]c3ccccc23)C(=O)N[C@@H](CCN)C(=O)N[C@@H](Cc2cn(CC(=O)O)c3ccccc23)C(=O)N1C [Example 13154] ({CH2CO}-Y(Me)[Pip]NPHQ[Hyp]W[Dab][Trp(1-CH2COOH)][NMeNle][NMeNle]LCG[Dap]([γGlu-C18 diacid])-OH; thioether N-14),8.00 to 9.52
2,CCCC[C@H]1C(=O)N(C)[C@@H](CCCC)C(=O)N[C@@H](CC(C)C)C(=O)N[C@H](C(=O)NCC(=O)NCC(=O)NCC(=O)NCCCCCCCCCCC(=O)O)CSCC(=O)N[C@@H](Cc2ccc(O)cc2)C(=O)N(C)[C@@H](C)C(=O)N[C@@H](CC(=O)O)C(=O)N2CCC[C@H]2C(=O)N[C@@H](CN)C(=O)N[C@@H](CCC(=O)O)C(=O)N2C[C@H](O)C[C@H]2C(=O)N[C@@H](Cc2c[nH]c3ccccc23)C(=O)N[C@@H](CCN)C(=O)N[C@@H](Cc2cn(CC(=O)O)c3ccccc23)C(=O)N1C [Example 11097] ({CH2CO}-Y[NMeA]DP[Dap]E[Hyp]W[Dab][Trp(1-CH2COOH)][NMeNle][NMeNle]LCGGG[Aun]-OH; thioether N-14),7.00 to 8.00
3,CCCC[C@H]1C(=O)N(C)[C@@H](CCCC)C(=O)N[C@@H](CCCNC(=N)N)C(=O)N[C@H](C(=O)NCC(=O)NCC(=O)N[C@@H](CCN=[N+]=[N-])C(N)=O)CSCC(=O)N[C@@H](Cc2ccc(O)cc2)C(=O)N(C)[C@@H](C)C(=O)N[C@@H](CC(N)=O)C(=O)N2CCC[C@H]2C(=O)N[C@@H](CN)C(=O)N[C@@H](CC(C)C)C(=O)N2C[C@H](O)C[C@H]2C(=O)N[C@@H](Cc2c[nH]c3ccccc23)C(=O)N[C@@H](CO)C(=O)N[C@@H](Cc2csc3ccccc23)C(=O)N1C [INT 1300C] ({CH2CO}-Y[NMeA]NP[Dap]L[Hyp]WS[Bta][NMeNle][NMeNle]RCGG[Aha]-NH2; thioether N-14),8.00 to 9.52
4,CCCC[C@H]1C(=O)N(C)[C@@H](CCCC)C(=O)N[C@@H](CCC(=O)O)C(=O)N[C@H](C(=O)NCC(=O)N[C@@H](Cc2cn(CCOCCOCCOCCOC)nn2)C(=O)NCC(N)=O)CSCC(=O)N[C@@H](Cc2ccc(O)cc2)C(=O)N(C)[C@@H](C)C(=O)N[C@@H](CC(=O)O)C(=O)N2CCC[C@H]2C(=O)N[C@@H](Cc2c[nH]cn2)C(=O)N[C@@H](CCCCN)C(=O)N2C[C@H](O)C[C@H]2C(=O)N[C@@H](Cc2c[nH]c3ccccc23)C(=O)N[C@@H](CCCCN)C(=O)N[C@@H](Cc2c[nH]c3ccccc23)C(=O)N1C [Example 14063],7.00 to 8.00
5,CCCCCCCCCCCCCC(=O)N[C@@H](CCC(=O)NCCCC[C@H](NC(=O)CNC(=O)CNC(=O)CNC(=O)[C@@H]1CSCC(=O)N[C@@H](Cc2ccc(O)cc2)C(=O)N(C)[C@@H](C)C(=O)N[C@@H](CC(N)=O)C(=O)N2CCC[C@H]2C(=O)N[C@@H](Cc2cnc[nH]2)C(=O)N[C@@H](CC(C)C)C(=O)N2C[C@H](O)C[C@H]2C(=O)N[C@@H](Cc2c[nH]c3ccccc23)C(=O)N[C@@H](CO)C(=O)N[C@@H](Cc2c[nH]c3ccccc23)C(=O)N(C)[C@@H](CCCC)C(=O)N(C)[C@@H](CCCC)C(=O)N[C@@H](CCCNC(=N)N)C(=O)N1)C(N)=O)C(=O)O [Example 11116] ({CH2CO}-Y[NMeA]NPHL[Hyp]WSW[NMeNle][NMeNle]RCGGGK([γGlu-Myristoyl])-NH2; thioether N-14),7.00 to 8.00
6,CCCC[C@H]1C(=O)N(C)[C@@H](CCCC)C(=O)N[C@@H](CC(C)C)C(=O)N[C@H](C(=O)N[C@@H](CC(=O)O)C(=O)N[C@@H](CC(=O)NCCCOCCOCCOCCCNC(=O)CC[C@H](NC(=O)CCCCCCCCCCCCCCCCC(=O)O)C(=O)O)C(=O)O)CSCC(=O)N[C@@H](Cc2ccc(O)cc2)C(=O)N(C)[C@@H](C)C(=O)N[C@@H](CC(N)=O)C(=O)N2CCC[C@H]2C(=O)N[C@@H](CN)C(=O)N[C@@H](CC(C)C)C(=O)N2C[C@H](O)C[C@H]2C(=O)N[C@@H](Cc2c[nH]c3ccccc23)C(=O)N[C@@H](CCN)C(=O)N[C@@H](Cc2cn(CC(=O)O)c3ccccc23)C(=O)N1C [Example 11227] ({CH2CO}-Y[NMeA]NP[Dap]L[Hyp]W[Dab][Trp(1-CH2COOH)][NMeNle][NMeNle]LCDD(X6)-OH; thioether N-14),8.00 to 9.52
7,CCCC[C@H]1C(=O)N(C)[C@@H](CCCC)C(=O)N[C@@H](CC(C)C)C(=O)N[C@H](C(=O)NCC(=O)NCC(=O)N[C@@H](CC(=O)O)C(=O)NCCCCCCCCCCCCC(=O)O)CSCC(=O)N[C@@H](Cc2ccc(O)cc2)C(=O)N(C)[C@@H](C)C(=O)N[C@@H](CC(=O)O)C(=O)N2CCC[C@H]2C(=O)N[C@@H](Cc2cnc[nH]2)C(=O)N[C@@H](CCCCN)C(=O)N2C[C@H](O)C[C@H]2C(=O)N[C@@H](Cc2c[nH]c3ccccc23)C(=O)N[C@@H](CCCCN)C(=O)N[C@@H](Cc2cn(CC(=O)O)c3ccccc23)C(=O)N1C [Example 11220] ({CH2CO}-Y[NMeA]DPHK[Hyp]WK[Trp(1-CH2COOH)][NMeNle][NMeNle]LCGGD-{NH(CH2)12COOH}; thioether N-14),7.00 to 8.00
8,CCCC[C@H]1C(=O)N(C)[C@@H](CCCC)C(=O)N[C@@H](CC(C)C)C(=O)N[C@H](C(=O)NCC(=O)NCC(=O)NCC(=O)NCCCCC(=O)O)CSCC(=O)N[C@@H](Cc2ccc(O)cc2)C(=O)N(C)[C@@H](C)C(=O)N[C@@H](CC(N)=O)C(=O)N2CCC[C@H]2C(=O)N[C@@H](CN)C(=O)N[C@@H](CC(C)C)C(=O)N2C[C@H](O)C[C@@H]2C(=O)N[C@@H](Cc2c[nH]c3ccccc23)C(=O)N[C@@H](CCN)C(=O)N[C@@H](Cc2cn(CC(=O)O)c3ccccc23)C(=O)N1C [Example 11137] ({CH2CO}-Y[NMeA]NP[Dap]L[d(cisHyp)]W[Dab][Trp(1-CH2COOH)][NMeNle][NMeNle]LCGGG[Ava]-OH; thioether N-14),7.00 to 8.00
9,CCCC[C@H]1C(=O)N(C)[C@@H](CCCC)C(=O)N[C@@H](CC(C)C)C(=O)N[C@H](C(=O)NCC(=O)N[C@@H](CCC(=O)NCCCOCCOCCOCCCNC(=O)C[C@H](NC(=O)CCCCCCCCCCCCCCCCC(=O)O)C(=O)O)C(=O)O)CSCC(=O)N[C@@H](Cc2ccc(O)cc2)C(=O)N(C)[C@@H](C)C(=O)N[C@@H](CC(N)=O)C(=O)N2CCC[C@@H]2C(=O)N[C@@H](CN)C(=O)N[C@@H](CC(C)C)C(=O)N2C[C@@H](O)C[C@@H]2C(=O)N[C@@H](Cc2c[nH]c3ccccc23)C(=O)N[C@@H](CCN)C(=O)N[C@@H](Cc2cn(CC(=O)O)c3ccccc23)C(=O)N1C [Example 11234] ({CH2CO}-Y[NMeA]N[dP][Dap]L[dHyp]W[Dab][Trp(1-CH2COOH)][NMeNle][NMeNle]LCGE(X4)-OH; thioether N-14),8.00 to 9.52
10,CCCCCCCC[C@@H](NC(=O)CCC(=O)NCCCOCCOCCOCCCNC(=O)[C@@H]1CSCC(=O)N[C@@H](Cc2ccc(O)cc2)C(=O)N(C)[C@@H](C)C(=O)N[C@@H](CC(N)=O)C(=O)N2CCC[C@H]2C(=O)N[C@@H](CN)C(=O)N[C@@H](CC(C)C)C(=O)N2C[C@H](O)C[C@H]2C(=O)N[C@@H](Cc2c[nH]c3ccccc23)C(=O)N[C@@H](CCN)C(=O)N[C@@H](Cc2cn(CC(=O)O)c3ccccc23)C(=O)N(C)[C@@H](CCCC)C(=O)N(C)[C@@H](CCCC)C(=O)N[C@@H](CC(C)C)C(=O)N1)C(=O)O [Example 11135] ({CH2CO}-Y[NMeA]NP[Dap]L[Hyp]W[Dab][Trp(1-CH2COOH)][NMeNle][NMeNle]LC-X25; thioether N-14),7.00 to 8.00
11,CCCC[C@H]1C(=O)N(C)[C@@H](CCCC)C(=O)N[C@@H](CC(C)C)C(=O)N[C@H](C(=O)NCC(=O)N[C@@H](CCC(=O)NCCOCCOCCOCCOCCOCCOCCC(=O)NC[C@H](NC(=O)CCCCCCCCCCCCCCC(=O)O)C(=O)O)C(=O)O)CSCC(=O)N[C@@H](Cc2ccc(O)cc2)C(=O)N(C)[C@@H](C)C(=O)N[C@@H](CC(N)=O)C(=O)N2CCC[C@H]2C(=O)N[C@@H](CN)C(=O)N[C@@H](CC(C)C)C(=O)N2C[C@H](O)C[C@@H]2C(=O)N[C@@H](Cc2c[nH]c3ccccc23)C(=O)N[C@@H](CCN)C(=O)N[C@@H](Cc2cn(CC(=O)O)c3ccccc23)C(=O)N1C [Example 11165] ({CH2CO}-Y[NMeA]NP[Dap]L[d(cisHyp)]W[Dab][Trp(1-CH2COOH)][NMeNle][NMeNle]LCG[γGlu][PEG6]-X10; thioether N-14),8.00 to 9.52
12,CCCC[C@H]1C(=O)N2CCC[C@@H]2C(=O)N[C@@H](CC(=O)O)C(=O)N[C@@H](C(C)C)C(=O)N(C)[C@@H](Cc2ccccc2)C(=O)N[C@@H](CCCN)C(=O)N2CCC[C@@H]2C(=O)N[C@@H](Cc2c[nH]c3ccccc23)C(=O)N[C@@H](Cc2ccc(O)cc2)C(=O)N[C@@H](CC(C)C)C(=O)N[C@H](C(=O)NCC(=O)N[C@@H](Cc2cn(CC[C@H](NC(=O)CCCCCCCCCCCCCCC(=O)O)C(=O)O)nn2)C(N)=O)CSCC(=O)N[C@@H](Cc2cc(F)c(F)c(F)c2)C(=O)N(C)[C@@H](Cc2ccccc2)C(=O)N1C [Example 14073],7.00 to 8.00
13,CCCCCCCCCCCCCCCCNC(=O)CCC(=O)NCCCOCCOCCOCCCNC(=O)CNC(=O)[C@@H]1CSCC(=O)N[C@@H](Cc2ccc(O)cc2)C(=O)N(C)[C@@H](C)C(=O)N[C@@H](CC(=O)O)C(=O)N2CCC[C@H]2C(=O)N[C@@H](Cc2cnc[nH]2)C(=O)N[C@@H](CC(C)C)C(=O)N2C[C@H](O)C[C@H]2C(=O)N[C@@H](Cc2c[nH]c3ccccc23)C(=O)N[C@@H](CO)C(=O)N[C@@H](Cc2c[nH]c3ccccc23)C(=O)N(C)[C@@H](CCCC)C(=O)N(C)[C@@H](CCCC)C(=O)N[C@@H](CCCNC(=N)N)C(=O)N1 [Example 11124] ({CH2CO}-Y[NMeA]DPHL[Hyp]WSW[NMeNle][NMeNle]RCG-X27; thioether N-14),5.80 to 7.00
